Data: paper PMC12514245, “Impaired migration and lung invasion of human melanoma by a novel small molecule targeting the transmembrane domain of death receptor p75^NTR” (EMBO Molecular Medicine, 2025)
Where “and” joins values, the source holds several entries; their conditions need not be identical. Identical values can stand only once.

Tests used:
human 70W cells = test: Lung invasion after intravenous injection of 70W cells; conditions: 70W cells lose p75ntr expression in vivo
Procedure: A875 NT cells that both wound areas decreased from 1 to ~0.75 in 24 hours. But in […]
Do the in vitro assays recapitulate melanoma invasiveness? If not, is it possible the ideal compounds were missed from the screening in melanoma cells (Figure 6)? […] This assay simply scores the relative orientation/conformation of the interacting receptor TMDs in isolation form the rest of the receptor. The wound healing assay is a rather simplistic assay of cell motility. The in vitro assay that better recapitulates what may happen in vivo is the Boyden chamber migration/invasion assay.
2. In Figure 7A, co-IP experiment requires input and IgG control to show positivity and specificity. In Figure 7B, quantification using the ratio of Triton-insoluble fascin to total fascin will be much more solid than only showing the western blot.
The input control was added in 7A and quantification in 7B (also in 7A).
"NGF treatment strongly stimulated the association of fascin with p75NTR".
The labels in the Western blot shown in this panel were incorrect. They have now been […]
4. Validation of results in another human cell line
During the past year, multiple tests were done by intravenous injection of human 70W cells, […]
followed by monitoring cells in the lungs in the presence and absence of drug treatment. […]
in vivo environment. […]

A875 shp75 cells = test: Filopodia per cell (phalloidin staining), A875 shp75; format: cell-based, human; conditions: for filopodia per cell (mean of 3 experiments) / filopodia per cell (mean of one experiment): A875 shp75; for filopodia per cell (mean of one experiment): EXP1-EXP3
Procedure: For assessment of actin filaments, A875 cells were plated on glass coverslips in 24-well plate at a confluency of 3 × 10^4 cells/well. One day after plating, the cells were treated with 1 μM or 5 μM Np75-4A22 and NGF (100 ng/ml) or PBS for 24 h. Cells were fixed in 4% paraformaldehyde, permeabilized in 0.1% Triton-X-100, stained with Phalloidin-iFluor 488 (Abcam) at 1:2000 dilution and DAPI for 1 h. Coverslips were mounted and visualized in a laser confocal microscope.

[1] = target: T1, p75^NTR I253A TMD mutant in COS cells (Rattus norvegicus, UniProt P07174, I253A); test: Live cell homo-FRET anisotropy, I253A mutant p75NTR; format: cell-based; parameters: key to average anisotropy change, I253A: fold change vs mean of 6 pre-treatment time points (baseline ≈ 100); conditions: for average anisotropy change, I253A: 10 μM
T1 construct: COS cells expressing full length, GFP-tagged rat p75^NTR; expressed in transfected cells; host or cells: COS-7
T1 sequence (P07174 30-425 I253A): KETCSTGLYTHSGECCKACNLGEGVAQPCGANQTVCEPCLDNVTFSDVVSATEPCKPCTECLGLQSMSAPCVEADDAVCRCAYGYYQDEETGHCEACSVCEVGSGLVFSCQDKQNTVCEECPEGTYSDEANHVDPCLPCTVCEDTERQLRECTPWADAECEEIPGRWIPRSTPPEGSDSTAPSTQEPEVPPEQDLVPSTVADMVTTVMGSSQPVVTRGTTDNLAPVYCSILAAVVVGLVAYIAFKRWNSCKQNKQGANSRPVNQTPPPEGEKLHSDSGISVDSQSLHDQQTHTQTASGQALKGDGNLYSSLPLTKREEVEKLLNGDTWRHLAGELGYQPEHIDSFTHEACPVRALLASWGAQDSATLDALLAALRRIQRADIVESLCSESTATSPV
From the text: Previous real-time homo-FRET anisotropy studies by ours as well as other laboratories have shown that the intracellular death domains of p75^NTR are associated with each other (high FRET, low anisotropy state) under basal conditions (Vilar et al, [2009]; Sykes et al, [2012]), but neurotrophin binding induces transient separation of p75^NTR death domains (low FRET, high anisotropy state) manifested as oscillations in real-time anisotropy measurements (Lin et al, [2015]; Tanaka et al, [2016]; Goh et al, [2018]). COS cells expressing full length, GFP-tagged rat p75^NTR were treated with vehicle or Div17E5 and changes in anisotropy levels were recorded over time.
Anisotropy imaging in COS-7 cells that were transfected with a rat p75^NTR-EGFP* fusion construct was done as previously described (Goh, Lin et al, [2018]). EGFP* carries a […] mutation rendering monomeric EGFP. Changes in anisotropy were expressed as fold change at each time point (every 30 s) in comparison to the mean of 6 time points obtained prior to addition of treatment. Images were acquired using Nikon Ti-E based live cell epi-fluorescence microscope and MetaMorph software and analyzed using MatLab from Mathworks.

[2] = A875 shp75, EXP3, 1 uM 4A22 + 100 ng/ml NGF
[3] = A875 shp75 cells, EXP1, 1 uM 4A22, wells 1-4
[4] = A875 shp75 cells, EXP1, 5 uM 4A22 + 100 ng/ml NGF, wells 1-4
[5] = A875 shp75 cells, EXP2, 1 uM 4A22 + 100 ng/ml NGF, wells 1-4
[6] = A875 shp75 cells, EXP2, 5 uM 4A22 + 100 ng/ml NGF, wells 1-4
[7] = A875 shp75 cells, EXP2, 5 uM 4A22, wells 1-4

## Cc1cccc(-c2cncc(Nc3ccc(Br)c(Cl)c3Cl)n2)c1C [Np75-4A22]
Human 70W cells
  number of metastasized 70W cells in the lungs: had no effect on the number of metastasized cells
A875 shp75 cells; 1 or 5 μM
  filopodia per cell, compound alone: no effects per se
A875 shp75 cells; [2]
  filopodia per cell (single image): 35
  filopodia per cell (well mean): 35.0833 and 29.3333 and 46.5 and 31.1667
A875 shp75 cells; A875 shp75, EXP3, 5 uM 4A22
  filopodia per cell (single image): 35
  filopodia per cell (well mean): 26.25 and 40.3333 and 46.1111 and 41.3333
A875 shp75 cells; A875 shp75, EXP3, 5 uM 4A22 + 100 ng/ml NGF
  filopodia per cell (well mean): 35.1667 and 32.8333 and 43.3889 and 37.5
A875 shp75 cells; 100ng/ml NGF&1uM 4A22
  filopodia per cell (mean of 3 experiments): 37.2384
  filopodia per cell (mean of one experiment): 38.132 and 38.0625 and 35.5208
A875 shp75 cells; 100ng/ml NGF&5uM 4A22
  filopodia per cell (mean of 3 experiments): 37.6510
  filopodia per cell (mean of one experiment): 35.6615 and 40.0695 and 37.2222
A875 shp75 cells; 1uM 4A22
  filopodia per cell (mean of 3 experiments): 34.8819
  filopodia per cell (mean of one experiment): 30.6458 and 39.4583 and 34.5417
A875 shp75 cells; 5uM 4A22
  filopodia per cell (mean of 3 experiments): 36.6829
  filopodia per cell (mean of one experiment): 35.8958 and 35.6458 and 38.5069
A875 shp75 cells; A875 shp75 cells, EXP1, 1 uM 4A22 + 100 ng/ml NGF, wells 1-4
  filopodia per cell (well mean): 34.0833 and 42.6667 and 40.1111 and 35.6667
A875 shp75 cells; [3]
  filopodia per cell (single image): 35
  filopodia per cell (well mean): 28.25 and 31.6667 and 30.4167 and 32.25
A875 shp75 cells; [4]
  filopodia per cell (single image): 35
  filopodia per cell (well mean): 38.8333 and 30.1667 and 37.3125 and 36.3333
A875 shp75 cells; A875 shp75 cells, EXP1, 5 uM 4A22, wells 1-4
  filopodia per cell (well mean): 36.5 and 34.5 and 32.75 and 39.8333
A875 shp75 cells; [5]
  filopodia per cell (single image): 35
  filopodia per cell (well mean): 43.1667 and 38 and 39.3333 and 31.75
A875 shp75 cells; A875 shp75 cells, EXP2, 1 uM 4A22, wells 1-4
  filopodia per cell (well mean): 35.6667 and 37.1667 and 36.6667 and 48.3333
A875 shp75 cells; [6]
  filopodia per cell (single image): 35
  filopodia per cell (well mean): 43.6667 and 38.1667 and 45.6111 and 32.8333
A875 shp75 cells; [7]
  filopodia per cell (single image): 35
  filopodia per cell (well mean): 36.5 and 31 and 38.1667 and 36.9167

## Oc1ccc(-c2cncc(Nc3ccc(Br)c(Cl)c3)n2)cc1 [Div17E5]
[1]; 10 µM
  real-time homo-FRET anisotropy, Ile253 to Ala mutant: blunted homo-FRET changes
[1]; 0 min after compound addition
  average anisotropy change, I253A: 101
[1]; 0.5 min after compound addition
  average anisotropy change, I253A: 97
[1]; 1 min after compound addition
  average anisotropy change, I253A: 99
[1]; 1.5 min after compound addition
  average anisotropy change, I253A: 105
[1]; 2 min after compound addition
  average anisotropy change, I253A: 103
[1]; 2.5 min after compound addition
  average anisotropy change, I253A: 100
[1]; 3 min after compound addition
  average anisotropy change, I253A: 100
[1]; 3.5 min after compound addition
  average anisotropy change, I253A: 99
[1]; 4 min after compound addition
  average anisotropy change, I253A: 102
[1]; 4.5 min after compound addition
  average anisotropy change, I253A: 95
[1]; 5 min after compound addition
  average anisotropy change, I253A: 101
[1]; 5.5 min after compound addition
  average anisotropy change, I253A: 100
[1]; 6 min after compound addition
  average anisotropy change, I253A: 103
[1]; 6.5 min after compound addition
  average anisotropy change, I253A: 91
[1]; 7 min after compound addition
  average anisotropy change, I253A: 103
[1]; 7.5 min after compound addition
  average anisotropy change, I253A: 100
[1]; 8 min after compound addition
  average anisotropy change, I253A: 96
[1]; 8.5 min after compound addition
  average anisotropy change, I253A: 103
[1]; 9 min after compound addition
  average anisotropy change, I253A: 93
[1]; 9.5 min after compound addition
  average anisotropy change, I253A: 102
[1]; 10 min after compound addition
  average anisotropy change, I253A: 101
[1]; 10.5 min after compound addition
  average anisotropy change, I253A: 97
[1]; 11 min after compound addition
  average anisotropy change, I253A: 105
[1]; 11.5 min after compound addition
  average anisotropy change, I253A: 98
[1]; 12 min after compound addition
  average anisotropy change, I253A: 97
[1]; 12.5 min after compound addition
  average anisotropy change, I253A: 99
[1]; 13 min after compound addition
  average anisotropy change, I253A: 104
[1]; 13.5 min after compound addition
  average anisotropy change, I253A: 102
[1]; 14 min after compound addition
  average anisotropy change, I253A: 96
[1]; 14.5 min after compound addition
  average anisotropy change, I253A: 104
[1]; 15 min after compound addition
  average anisotropy change, I253A: 99
[1]; -0.5 min after compound addition
  average anisotropy change, I253A: 106
[1]; -1 min after compound addition
  average anisotropy change, I253A: 94
[1]; -1.5 min after compound addition
  average anisotropy change, I253A: 101
[1]; -2 min after compound addition
  average anisotropy change, I253A: 103
[1]; -2.5 min after compound addition
  average anisotropy change, I253A: 97
[1]; -3 min after compound addition
  average anisotropy change, I253A: 99
